pIC50: −log10 of the molar value.

Holding throughout (type): functional, cell-based
The test system of one experiment is OVCAR-3. The experiment can be described thus: Cytotoxicity against human OVCAR-3 cells assessed as inhibition of cell viability incubated for 72 hrs by CellTiter-blue cell viability assay. Particulars: OVCAR-3, 72 h.
A further experiment relates to HT-29. The experiment can be described thus: Cytotoxicity against human HT-29 cells assessed as inhibition of cell viability incubated for 72 hrs by CellTiter-blue cell viability assay. Particulars: HT-29, 72 h. A general note: The colour change of resazurin is a common sign of viable cells or microbes.
The next experiment relates to MDA-MB-231. The experiment is described as follows: Cytotoxicity against human MDA-MB-231 cells assessed as inhibition of cell viability incubated for 72 hrs by CellTiter-blue cell viability assay. The settings on record: MDA-MB-231, 72 h.
A further experiment concerns MDA-MB-435. The experiment is described as follows: Cytotoxicity against human MDA-MB-435 cells assessed as inhibition of cell viability incubated for 72 hrs by CellTiter-blue cell viability assay. The settings on record: MDA-MB-435, 72 h.

The term pIC50 denotes the IC50 on a negative log10 scale, so that one unit is a factor of ten. Turning to `COC(=O)[C@H]1[C@@H](O)[C@@]2(O)c3c(OC)cc(O[C@@H]4O[C@@H]([C@H](O)CO)CO[C@@H]4OC)cc3O[C@@]2(c2ccc(OC)cc2)[C@@H]1c1ccccc1`, the pIC50 with OVCAR-3 is 6.68; in the experiment on HT-29 it was 6.43; in the experiment with MDA-MB-231, 6.62; with MDA-MB-435, 6.60.
The like results for `COC(=O)[C@H]1[C@@H](O)[C@@]2(O)c3c(OC)cc(O[C@@H]4O[C@@H]([C@@H](O)CO)CO[C@@H]4OC)cc3O[C@@]2(c2ccc(OC)cc2)[C@@H]1c1ccccc1` were, in that order, 6.68, 6.35, 6.68 and 6.60.
Consider `COC(=O)[C@H]1[C@@H](O)[C@@]2(O)c3c(OC)cc(O[C@@H]4O[C@@H]([C@H]5COC(C)(C)O5)CO[C@H]4OC)cc3O[C@@]2(c2ccc(OC)cc2)[C@@H]1c1ccccc1`, for which the pIC50 in the experiment on OVCAR-3 is 7.43; in the experiment with HT-29 it was 7.70; in the experiment with MDA-MB-231 it was 6.59; with MDA-MB-435 it was 7.51.
The like results for `COC(=O)[C@H]1[C@@H](O)[C@@]2(O)c3c(OC)cc(O[C@@H]4O[C@@H]([C@@H]5COC(C)(C)O5)CO[C@H]4OC)cc3O[C@@]2(c2ccc(OC)cc2)[C@@H]1c1ccccc1` were, in that order, 7.42, 7.43, 7.70 and 7.59.
The like results for `COC(=O)[C@H]1[C@@H](O)[C@@]2(O)c3c(OC)cc(O[C@@H]4O[C@@H]([C@@H](O)CO)CO[C@H]4OC)cc3O[C@@]2(c2ccc(OC)cc2)[C@@H]1c1ccccc1` [2'-EPISILVESTROL] were, in that order, 8.70, 8.52, 8.70 and 8.70.
Consider `CC(=O)O[C@H]1C(=O)[C@@]2(C)[C@H]([C@H](OC(=O)c3ccccc3)[C@]3(O)C[C@H](OC(=O)[C@H](O)[C@@H](NC(=O)c4ccccc4)c4ccccc4)C(C)=C1C3(C)C)[C@]1(OC(C)=O)CO[C@@H]1C[C@@H]2O` [PACLITAXEL], for which the pIC50 was 7.92 in the experiment with OVCAR-3 and 8.30 in the experiment on MDA-MB-435.
Regarding `COC(=O)[C@H]1[C@@H](O)[C@@]2(O)c3c(OC)cc(O[C@@H]4O[C@@H]([C@H](O)CO)CO[C@H]4OC)cc3O[C@@]2(c2ccc(OC)cc2)[C@@H]1c1ccccc1` [SILVESTROL], the pIC50 with OVCAR-3 was 8.70; with HT-29 it was 7.52; in the experiment with MDA-MB-231 it was 8.70; in the experiment on MDA-MB-435, 8.70.

(Values after ChEMBL document CHEMBL6103637, “Additional Bioactive Silvestrol Analogs from the Roots of Aglaia perviridis Collected in Vietnam” (J Nat Prod, 2025).)
